Read-outs that look alike come from different tables or passages of the source.
How the values were obtained:
[1] = Pharmacokinetics in plasma and brain after single i.p. dose; conditions: for half-life: t1/2 (terminal half-life); for half-life / AUC, brain / Cmax, brain / penetration into the brain: single i.p. 10 mg/kg; for half-life / AUC, brain / Cmax, brain: female mice; for penetration into the brain: mice
Protocol: (§2) Blood and brain samples were extracted at selected time points (15 min, 1, 3 and 6 h) from two animals per sampling point. Blood samples were collected by intracardiac puncture into heparinized tubes. Plasma was obtained by blood centrifugation at 4° C. and 2280 g for 10 min. Plasma and brain samples were kept at −80° C. until analysis. Brains were homogenized with Dulbecco's phosphate saline buffer pH 7.4 (4 ml/g tissue). Plasma and brain samples were assayed by ultra-performance liquid chromatography-triple quadrupole mass spectrometry (UPLC-MS/MS) after protein precipitation. Standard pharmacokinetic parameters, such as the area under the curve (AUC), peak plasma concentration (Cmax), time to peak concentration (tmax), and terminal half-life (t1/2) were determined by noncompartmental analysis of the plasma and brain concentration-time curves (Phoenix v.6.2.1.51, Pharsight, CA).

in vivo [2] = experiment: in vivo; set-up: species or system male SOD1^G93A mice; conditions: mouse, ip; for concentration at 15 min: male, SOD1^G93A
Protocol: Plasma levels were determined in the two in vivo models evaluated to be able to associate the pharmacological activity with the levels present in plasma. […] […] […] Results are expressed as mean±standard deviation (n=2-6).

[3] = tested on: motoneurons (MNs) in spinal cord organotypic cultures; experiment: Spinal cord organotypic cultures (SCOCs) under THA chronic excitotoxicity, SMI-32 positive MN count; format: cell-based, Sprague-Dawley rats; conditions: THA 100 μM, 28 DIV
Protocol: Briefly, the spinal cord was collected and cut in 350 μm thick transverse sections with a Mcllwain Tissue Chopper. Four lumbar sections per sample were transferred onto Millicell-CM nets (0.4 μm, PICM03050, Millipore) in medium [50% (v/v) minimal essential medium (MEM, M5775, Sigma), 2 mM glutamine, 25 mM HEPES, 25% (v/v) Hank's Balanced Salt Solution (HBSS^−/−, 14175, Gibco) supplemented with 25.6 mg/ml glucose and 25% (v/v) heat-inactivated horse serum (26050-088, Gibco), pH=7.2]. Cultures were maintained at 37° C. in a 5% CO2 humidified cabin and let to stabilize. After 7 days in vitro (DIV), DL-threo-b-hydroxyaspartic acid (THA; 100 μM) was added to induce chronic excitotoxicity (Rothstein et al., 1993). The neuroprotective effect of each Sig-1R ligand was assessed by its coaddition to the culture with THA and renewing at each medium change. […] In vitro experiments were performed in three independent cultures, with at least 12 different SCOCs for each experimental condition.
Slices were maintained for 28 DIV and then fixed with 4% paraformaldehyde. […] MN survival was assessed by counting all SMI-32 positive neurons in each spinal cord using the Cell Counter plugin of ImageJ software.

[4] = tested on: rhizotomized mice (L4-L5 spinal nerve section); experiment: L4-L5 spinal roots injury (rhizotomy): MN survival, glial reactivity, tolerability; conditions: for number of spinal MNs in the ipsilateral ventral horn (L4-L5) / astroglial reactivity, GFAP integrated density / microglial reactivity, IBA1 integrated density: 42 dpi, mean±SEM
Protocol: Briefly, the L4-L5 spinal roots were exposed by a small laminectomy on the right side. Then, roots were cut at the exit from the intervertebral foramina and the root stumps were separated. Mice were cared until recovery in warm environment.
The compounds were dissolved in 0.5% hydroxypropyl-methylcellulose (HPMC; Sigma-Aldrich) in distilled water. The compounds were administered by intraperitoneal (i.p.) route twice daily (bid) in a volume of 10 ml/kg. Administrations were given from 30 min after rhizotomy surgery until 42 days post-injury (dpi), the end of the study; in the SOD1^G93A study, treatments were given from 8 to 16 weeks of age.
At the end of follow up (42 days post-injury (dpi)) for rhizotomy and 16 weeks of age for ALS mice) the animals were deeply anesthetized and transcardially perfused with 4% paraformaldehyde in PBS. The lumbar spinal cord and the TA muscle were harvested and cryopreserved in 30% sucrose solution in PB. The spinal cords were serially cut in 20 μm-thick transverse sections with a cryostat (Leica). For MN counting, L4-L5 spinal cord sections separated 100 μm were stained for 3 h with an acidified solution of 3.1 mM cresyl violet.
Finally, sides were mounted with Fluoromount G. To quantify glial cell reactivity, images of the ventral horn were acquired with an epifluorescence microscope (Nikon Eclipse Ni, Japan) using the same conditions for each analyzed marker. After defining a threshold for background correction, the integrated density of GFAP or Iba1 labeling was measured using ImageJ software.

human Sig-1R = human Sig-1R (Homo sapiens, UniProt Q99720); experiment: Affinity for the human Sig-1R; format: binding
Protocol: (§1) A selectivity profile (Spectrum Screen) including a panel with more than 180 binding assays for different receptors, ion channels, transporters and enzymes was performed for compound A and compound B at EurofinsPanlabs according to their specifications.

SOD1^G93A mice = conditions: for NMJ innervation (proportion of innervated endplates) of hindlimb muscle: SOD1^G93A mice at 16 weeks; for NMJ innervation (proportion of innervated endplates) of hindlimb muscle / astrocyte activation (GFAP) in ventral horn: compounds 5 mg/kg; for NMJ innervation (proportion of innervated endplates) of hindlimb muscle / CMAP amplitude of TA and plantar muscles / astrocyte activation (GFAP) in ventral horn: PRE-084 0.25 mg/kg i.p. bid; for CMAP amplitude of TA and plantar muscles / number of surviving spinal MNs per section / astrocyte activation (GFAP) in ventral horn: SOD1^G93A mice; for CMAP amplitude of TA and plantar muscles: 11 and 13 weeks, compound 5 mg/kg; for number of surviving spinal MNs per section: 16 weeks of age, mean±SEM; for astrocyte activation (GFAP) in ventral horn: 16 weeks
Protocol: Motor nerve conduction tests were performed before the surgery to obtain baseline values and at the end of the follow up in the rhizotomy model, whereas the SOD1^G93A mice were evaluated at 8 weeks (prior to starting drug administration) and then every 2-3 weeks until the end point at 16 weeks of age. The sciatic nerve was stimulated by means of single pulses delivered through needle electrodes placed at the sciatic notch. The compound muscle action potential (CMAP) was recorded from tibialis anterior (TA), gastrocnemius (GM) and plantar interossei muscles with microneedle electrodes (Mancuso et al., 2011). The CMAPs were amplified to measure the latency to the onset and the amplitude from baseline to the maximal negative peak. The mice were anesthetized with pentobarbital (50 mg/kg i.p.) and their body temperature was maintained by means of a thermostated warming pad.
For neuromuscular junctions (NMJ) labeling, 50 μm-thick longitudinal sections of TA muscle were serially cut. Sections were blocked with 5% normal donkey serum and incubated with primary antibodies rabbit anti-synaptophysin (1:500; AB32127, Abcam) and chicken anti-neurofilament 200 (NF200, 1:1000; AB5539, Millipore, USA) 48 h at 4° C. After washes, sections were incubated overnight with secondary antibody Alexa Fluor 594-donkey anti-rabbit and anti-chicken (1:200; A11042-A21207, Invitrogen, USA) and Alexa 488 conjugated α-bungarotoxin (1:500; B13422, Life Technologies, USA). Confocal images were captured (LSM 700 Axio Observer, Carl Zeiss, 40×Oil/z0.5) and the maximum projection images generated from 1.3 μm z projections. The proportion of innervated NMJs was calculated by classifying each endplate as occupied (when presynaptic terminals overly the endplate) or vacant (no presynaptic label in contact with the endplate). At least 60 endplates were analyzed per muscle.

Sig-2R = Sig-2R (Homo sapiens, UniProt Q5BJF2); experiment: Affinity for the Sig-2R; format: binding; conditions: not shown
Protocol: as §1

in vivo [5] = conditions: female, C57-BL6, mouse, ip, 10 mg/kg; for half-life: t1/2 (terminal half-life)
Protocol: as §2

[6] = cited from earlier work
[7] = Plasma levels in the rhizotomy model after chronic i.p. administration; set-up: species or system female mice (B6SJL); conditions: mouse, in vivo, ip, 0.25 mg/kg
[8] = female, C57-BL6, mouse, brain, ip, 10 mg/kg
[9] = female, C57-BL6, mouse, plasma, ip, 10 mg/kg
[10] = 0.5 mg/kg bid i.p., not significant
[11] = 5 mg/kg bid i.p., untreated 19×10^4±5×10^4
[12] = 5 mg/kg bid i.p., untreated 26×10^4±3×10^4
[13] = twice daily i.p. administration for 6 weeks
[14] = 5 mg/kg i.p. bid, untreated 6.9±0.5, WT 25.3±0.5

Chain of human Sig-1R (Q99720 whole entry): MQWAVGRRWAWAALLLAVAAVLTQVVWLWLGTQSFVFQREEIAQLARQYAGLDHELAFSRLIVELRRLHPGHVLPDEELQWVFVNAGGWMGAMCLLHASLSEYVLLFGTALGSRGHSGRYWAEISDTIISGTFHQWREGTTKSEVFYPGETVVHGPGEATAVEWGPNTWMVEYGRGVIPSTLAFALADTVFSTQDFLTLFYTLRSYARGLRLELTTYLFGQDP
Chain of Sig-2R (Q5BJF2 whole entry): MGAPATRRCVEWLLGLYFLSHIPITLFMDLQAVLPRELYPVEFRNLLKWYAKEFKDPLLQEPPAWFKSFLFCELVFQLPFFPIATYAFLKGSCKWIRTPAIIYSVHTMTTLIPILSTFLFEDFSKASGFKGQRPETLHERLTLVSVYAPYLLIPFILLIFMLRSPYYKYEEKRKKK

Row | Structure (SMILES) | AUC, brain ([1]; brain) | Cmax, brain ([1]; brain) | penetration into the brain [1] | concentration at 15 min (in vivo [2]; 5 mg/kg) | number of spinal MNs in the ipsilateral ventral horn (L4-L5) [4, 10] | astroglial reactivity, GFAP integrated density [4, 11] | microglial reactivity, IBA1 integrated density [4, 12] | toxicity on chronic administration [4, 13] | affinity for the human Sig-1R (human Sig-1R) | NMJ innervation (proportion of innervated endplates) of hindlimb muscle (SOD1^G93A mice) | CMAP amplitude of TA and plantar muscles (SOD1^G93A mice) | number of surviving spinal MNs per section (SOD1^G93A mice; [14]) | astrocyte activation (GFAP) in ventral horn (SOD1^G93A mice) | IC50 (Sig-2R) | other results
1 | C[C@@H]1OC2(CCN(Cc3ccc(F)cc3)CC2)CN(C)C1=O [Compound A, (S)-9-(4-fluorobenzyl)-2,4-dimethyl-1-oxa-4,9-diazaspiro[5.5]undecan-3-one] | 4873 ng·h/g | 5405 ng/g | good penetration into the brain | ~500 ng/mL | 7.6±0.9 | 4×10^4±0.4×10^4 | 13×10^4±2×10^4 | did not cause toxicity | high affinity | tendency to preserve NMJ innervation | significantly prevented the decline in amplitude of the CMAP | 10.8±1.1 | significant decrease of astrocyte activation | > 10 µM | Kp ([1]; female, C57-BL6, mouse, brain and plasma, ip, 10 mg/kg): 4.4; Tmax [1, 8]: 0.25 h; half-life [1, 8]: > 5 h; AUC [1, 9]: 1120 ng·h/mL; Cmax [1, 9]: 1350 ng/mL; Tmax [1, 9]: 0.25 h; half-life [1, 9]: > 5 h; estimated brain concentration (in vivo [2]; 5 mg/kg): about two-fold the concentration of compound B; number of SMI-32 positive neurons vs THA condition ([3]; tested at 0.03, 0.3, 3 and 30 μM, significant at three concentrations): significantly more SMI-32 positive neurons; number of spinal MNs in the ipsilateral ventral horn (L4-L5) ([4]; 5 mg/kg/bid i.p. for 6 weeks, untreated injured 6.8±0.3): 8.6±0.6
2 | CCN1CC2(CCN(Cc3ccc(C#N)c(F)c3)CC2)O[C@@H](C)C1=O [Compound B, (S)-4-((4-ethyl-2-methyl-3-oxo-1-oxa-4,9-diazaspiro[5.5]undecan-9-yl)methyl)-2-fluorobenzonitrile] | 1698 ng·h/g | 2652 ng/g | good penetration into the brain | ~500 ng/mL | 7.4±0.7 | 15×10^4±2.7×10^4 | 25×10^4±4×10^4 | did not cause toxicity | high affinity | tendency to preserve NMJ innervation |  | 8.5±1.0 | significant decrease of astrocyte activation | > 10 µM | preservation of MNs (SMI-32 positive) vs THA condition ([3]; 3 and 30 μM): significantly preserved MNs; AUC (in vivo [5]): 802 ng·h/mL; Cmax (in vivo [5]): 1340 ng/mL; Kp (in vivo [5]): 2.1; Tmax (in vivo [5]): 0.25 h; half-life (in vivo [5]; brain): 3.4 h; half-life (in vivo [5]; plasma): 2.2 h; body weight compared with the vehicle group [4, 13]: no difference in body weight
3 | O=C(OCCN1CCOCC1)C1(c2ccccc2)CCCCC1 [PRE-084, reference compound] |  |  |  |  |  |  |  |  | good affinity | significantly increased the proportion of innervated endplates | higher CMAP amplitude values |  | significant decrease of astrocyte activation |  | Plasma concentration 30 min post-administration (in vivo [2]; 0.25 mg/kg): 2.6 ng/mL; Cmax, plasma ([6]; mouse, in vivo, ip, 10 mg/kg): 659 ng/mL; Cmax, brain ([6]; single i.p. 10 mg/kg, concentration at 5 min post-administration, brain): 774 ng/g; Plasma concentration 30 min post-administration [7]: 3.6 ng/mL; astroglial reactivity, GFAP integrated density ([4]; 0.25 mg/kg bid i.p.): 6×10^4±0.9×10^4; microglial reactivity, IBA1 integrated density ([4]; 0.25 mg/kg bid i.p.): 15×10^4±1.4×10^4; number of spinal MNs in the ipsilateral ventral horn (L4-L5) ([4]; 0.25 mg/kg bid i.p., positive control): 8.9±0.4; number of surviving spinal MNs per section (SOD1^G93A mice; 0.25 mg/kg i.p. bid): 12.4±0.9
